How the values were obtained:
Type in all cases: in vivo
[1] = system: Surinam grass (Brachiaria decumbens); test: Test B pre/postemergence
From the text: (§1) Seeds selected from barnyardgrass (Echinochloa crus-galli), Surinam grass (Brachiaria decumbens), cocklebur (Xanthium strumarium), corn (Zea mays), crabgrass (Digitaria sanguinalis), giant foxtail (Setaria faberii), lambsquarters (Chenopodium album), morningglory (Ipomoea coccinea), pigweed (Amaranthus retroflexus), velvetleaf (Abutilon theophrasti), and wheat (Triticum aestivum) were planted and treated preemergence with test chemicals formulated in a non-phytotoxic solvent mixture which included a surfactant.
(§2) At the same time, plants selected from these crop and weed species and also blackgrass (Alopecurus myosuroides) and wild oat (Avena fatua) were treated with postemergence applications of test chemicals formulated in the same manner. Plants ranged in height from 2 to 18 cm (1- to 4-leaf stage) for postemergence treatments. Plant species in the flooded paddy test consisted of rice (Oryza sativa), umbrella sedge (Cyperus difformis), duck salad (Heteranthera limosa) and barnyardgrass (Echinochloa crus-galli) grown to the 2-leaf stage for testing. Treated plants and controls were maintained in a greenhouse for 13 to 15 days, after which time all species were compared to controls and visually evaluated. Plant response ratings, summarized in Table B, are based on a scale of 0 to 100 where 0 is no effect and 100 is complete control. A dash (-) response means no test result.

[2] = system: barnyardgrass (Echinochloa crus-galli); test: Test B pre/postemergence
From the text: as §1, §2

[3] = system: cocklebur (Xanthium strumarium); test: Test B pre/postemergence
From the text: as §1, §2

[4] = system: corn (Zea mays); test: Test B pre/postemergence; details: for Plant response rating, Corn: 500 g ai/ha
From the text: as §1, §2

[5] = system: crabgrass (Digitaria sanguinalis); test: Test B pre/postemergence
From the text: as §1, §2

[6] = system: giant foxtail (Setaria faberii); test: Test B pre/postemergence
From the text: as §1, §2

[7] = system: lambsquarters (Chenopodium album); test: Test B pre/postemergence; details: Postemergence
From the text: as §1, §2

[8] = system: morningglory (Ipomoea coccinea); test: Test B pre/postemergence
From the text: as §1, §2

[9] = system: pigweed (Amaranthus retroflexus); test: Test B pre/postemergence; details: for Plant response rating, Pigweed: 500 g ai/ha
From the text: as §1, §2

[10] = system: velvetleaf (Abutilon theophrasti); test: Test B pre/postemergence
From the text: as §1, §2

[11] = system: wheat (Triticum aestivum); test: Test B pre/postemergence
From the text: as §1, §2

[12] = system: blackgrass (Alopecurus myosuroides); test: Test B postemergence
From the text: as §1, §2

[13] = system: wild oat (Avena fatua); test: Test B postemergence
From the text: as §1, §2

[14] = system: barnyardgrass (Echinochloa crus-galli); test: Test A pre/postemergence
How it was run: (§3)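 Compared with untreated controls, treated plants were visually rated for injury on a 0 (none) to 100 (complete control) scale about ten days after spraying. Pre- and postemergence applications used one solvent/surfactant formulation; postemergence plants measured 2–10 cm.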

[15] = system: crabgrass (Digitaria sanguinalis); test: Test A pre/postemergence
How it was run: as §3

[16] = system: giant foxtail (Setaria faberi); test: Test A pre/postemergence
How it was run: as §3

[17] = system: morningglory (Ipomoea spp.); test: Test A pre/postemergence
How it was run: as §3

[18] = system: redroot pigweed (Amaranthus retroflexus); test: Test A pre/postemergence
How it was run: as §3

[19] = system: velvetleaf (Abutilon theophrasti); test: Test A pre/postemergence
How it was run: as §3

[20] = Postemergence, 125 g ai/ha, scale 0 to 100 (0 no effect, 100 complete control)
[21] = Postemergence, 500 g ai/ha, scale 0 to 100
[22] = Preemergence, 125 g ai/ha, scale 0 to 100 (0 no effect, 100 complete control)
[23] = Preemergence, 500 g ai/ha, scale 0 to 100 (0 no effect, 100 complete control)
[24] = Preemergence, scale 0 to 100 (0 no effect, 100 complete control)
[25] = 125 g ai/ha, scale 0 to 100 (0 no effect, 100 complete control)
[26] = Postemergence, 125 g ai/ha, 0 to 100 scale (0 no effect, 100 complete control)
[27] = Postemergence, 500 g ai/ha, 0 to 100 scale (0 no effect, 100 complete control)
[28] = Preemergence, 125 g ai/ha, 0 to 100 scale where 0 is no effect and 100 is complete control, approximately ten days
[29] = Preemergence, 500 g ai/ha, 0 to 100 scale where 0 is no effect and 100 is complete control, approximately ten days

CCOC(=O)c1nc(C2CC2)nc(NOC)c1Br [Compound 52] was tested, and the “Surinam Grass plant response rating” value [1, 20] was 0, the “Plant response rating, Surinam Grass” value [1, 21] was 30 and the “Plant response rating, Surinam Grass” value [1, 22] was 0. For the same compound, the “Plant response rating, Surinam Grass” value [1, 23] was 0, the “Barnyardgrass plant response rating” value [2, 20] was 30 and the “Plant response rating, Barnyardgrass” value [2, 21] was 80. The “Plant response rating, Barnyardgrass” value [2, 22] was 0, the “Plant response rating, Barnyardgrass” value [2, 23] was 30 and the “Cocklebur plant response rating” value [3, 20] was 40. The “Plant response rating, Cocklebur” value [3, 21] was 60, the “Plant response rating, Cocklebur” value [3, 22] was 10 and the “Plant response rating, Cocklebur” value [3, 23] was 60. For the same compound, the “Corn plant response rating” value [4, 20] was 0, the “Plant response rating, Corn” value ([4]; Postemergence, scale 0 to 100) was 60 and the “Plant response rating, Corn” value [4, 24] was 0. For the same compound, the “Crabgrass plant response rating” value [5, 20] was 0, the “Plant response rating, Crabgrass” value [5, 21] was 60 and the “Plant response rating, Crabgrass” value [5, 22] was 0. The “Plant response rating, Crabgrass” value [5, 23] was 0, the “Foxtail, Giant plant response rating” value [6, 20] was 40 and the “Plant response rating, Foxtail, Giant” value [6, 21] was 60. For the same compound, the “Plant response rating, Foxtail, Giant” value [6, 22] was 0, the “Plant response rating, Foxtail, Giant” value [6, 23] was 0 and the “Lambsquarters plant response rating” value [7, 25] was 80. For the same compound, the “Plant response rating, Lambsquarters” value ([7]; 500 g ai/ha, scale 0 to 100) was 90, the “Morningglory plant response rating” value [8, 20] was 90 and the “Plant response rating, Morningglory” value [8, 21] was 90. The “Plant response rating, Morningglory” value [8, 22] was 10, the “Plant response rating, Morningglory” value [8, 23] was 100 and the “Pigweed plant response rating” value [9, 20] was 60. For the same compound, the “Plant response rating, Pigweed” value ([9]; Postemergence, scale 0 to 100) was 90, the “Plant response rating, Pigweed” value [9, 24] was 50 and the “Velvetleaf plant response rating” value [10, 20] was 40. For the same compound, the “Plant response rating, Velvetleaf” value [10, 21] was 50, the “Plant response rating, Velvetleaf” value [10, 22] was 0 and the “Plant response rating, Velvetleaf” value [10, 23] was 30. The “Wheat plant response rating” value [11, 20] was 0, the “Plant response rating, Wheat” value [11, 21] was 20 and the “Plant response rating, Wheat” value [11, 22] was 0. The “Plant response rating, Wheat” value [11, 23] was 0, the “Blackgrass plant response rating” value [12, 25] was 0 and the “Plant response rating, Blackgrass” value ([12]; 500 g ai/ha, scale 0 to 100) was 50. For the same compound, the “Oat, Wild plant response rating” value [13, 25] was 0 and the “Plant response rating, Oat, Wild” value ([13]; 500 g ai/ha, scale 0 to 100) was 20.

CC1(C)OCC(COC(=O)c2nc(C3CC3)nc(N)c2Cl)O1 (centres unmarked) [Compound 147] was tested, and the “Plant response rating, Barnyardgrass” value [14, 26] was 80, the “Plant response rating, Barnyardgrass” value [14, 27] was 90 and the “Plant response rating, Barnyardgrass” value [14, 28] was 70. For the same compound, the “Plant response rating, Barnyardgrass” value [14, 29] was 85, the “Plant response rating, Crabgrass” value [15, 26] was 25 and the “Plant response rating, Crabgrass” value [15, 27] was 75. The “Plant response rating, Crabgrass” value [15, 28] was 70, the “Plant response rating, Crabgrass” value [15, 29] was 80 and the “Plant response rating, Foxtail, Giant” value [16, 26] was 60. The “Plant response rating, Foxtail, Giant” value [16, 27] was 90, the “Plant response rating, Foxtail, Giant” value [16, 28] was 40 and the “Plant response rating, Foxtail, Giant” value [16, 29] was 85. The “Plant response rating, Morningglory” value [17, 26] was 85, the “Plant response rating, Morningglory” value [17, 27] was 100 and the “Plant response rating, Morningglory” value [17, 28] was 95. The “Plant response rating, Morningglory” value [17, 29] was 100, the “Plant response rating, Pigweed” value [18, 26] was 85 and the “Plant response rating, Pigweed” value [18, 27] was 95. For the same compound, the “Plant response rating, Pigweed” value [18, 28] was 80, the “Plant response rating, Pigweed” value [18, 29] was 90 and the “Plant response rating, Velvetleaf” value [19, 26] was 80. The “Plant response rating, Velvetleaf” value [19, 27] was 100, the “Plant response rating, Velvetleaf” value [19, 28] was 75 and the “Plant response rating, Velvetleaf” value [19, 29] was 95.

In the case of COC(=O)COC(=O)c1nc(C2CC2)nc(N)c1Cl [Compound 148], the “Plant response rating, Barnyardgrass” value [14, 26] is reported as 68, the “Plant response rating, Barnyardgrass” value [14, 27] is reported as 90 and the “Plant response rating, Barnyardgrass” value [14, 28] is reported as 65. The “Plant response rating, Barnyardgrass” value [14, 29] was 85, the “Plant response rating, Crabgrass” value [15, 26] was 10 and the “Plant response rating, Crabgrass” value [15, 27] was 85. The “Plant response rating, Crabgrass” value [15, 28] was 45, the “Plant response rating, Crabgrass” value [15, 29] was 90 and the “Plant response rating, Foxtail, Giant” value [16, 26] was 45. The “Plant response rating, Foxtail, Giant” value [16, 27] was 80, the “Plant response rating, Foxtail, Giant” value [16, 28] was 40 and the “Plant response rating, Foxtail, Giant” value [16, 29] was 80. For the same compound, the “Plant response rating, Morningglory” value [17, 26] was 90, the “Plant response rating, Morningglory” value [17, 27] was 100 and the “Plant response rating, Morningglory” value [17, 28] was 90. For the same compound, the “Plant response rating, Morningglory” value [17, 29] was 100, the “Plant response rating, Pigweed” value [18, 26] was 75 and the “Plant response rating, Pigweed” value [18, 27] was 95. For the same compound, the “Plant response rating, Pigweed” value [18, 28] was 80, the “Plant response rating, Pigweed” value [18, 29] was 90 and the “Plant response rating, Velvetleaf” value [19, 26] was 75. For the same compound, the “Plant response rating, Velvetleaf” value [19, 27] was 95, the “Plant response rating, Velvetleaf” value [19, 28] was 80 and the “Plant response rating, Velvetleaf” value [19, 29] was 100.

With Nc1nc(C2CC2)nc(C(=O)OCC2COC(=O)O2)c1Cl (centres unmarked) [Compound 149] the “Plant response rating, Barnyardgrass” value [14, 26] was 65, the “Plant response rating, Barnyardgrass” value [14, 27] was 90 and the “Plant response rating, Barnyardgrass” value [14, 28] was 70. The “Plant response rating, Barnyardgrass” value [14, 29] was 85, the “Plant response rating, Crabgrass” value [15, 26] was 25 and the “Plant response rating, Crabgrass” value [15, 27] was 75. The “Plant response rating, Crabgrass” value [15, 28] was 20, the “Plant response rating, Crabgrass” value [15, 29] was 75 and the “Plant response rating, Foxtail, Giant” value [16, 26] was 60. For the same compound, the “Plant response rating, Foxtail, Giant” value [16, 27] was 80, the “Plant response rating, Foxtail, Giant” value [16, 28] was 35 and the “Plant response rating, Foxtail, Giant” value [16, 29] was 90. The “Plant response rating, Morningglory” value [17, 26] was 80, the “Plant response rating, Morningglory” value [17, 27] was 95 and the “Plant response rating, Morningglory” value [17, 28] was 85. The “Plant response rating, Morningglory” value [17, 29] was 100, the “Plant response rating, Pigweed” value [18, 26] was 75 and the “Plant response rating, Pigweed” value [18, 27] was 90. The “Plant response rating, Pigweed” value [18, 28] was 70, the “Plant response rating, Pigweed” value [18, 29] was 90 and the “Plant response rating, Velvetleaf” value [19, 26] was 85. The “Plant response rating, Velvetleaf” value [19, 27] was 100, the “Plant response rating, Velvetleaf” value [19, 28] was 70 and the “Plant response rating, Velvetleaf” value [19, 29] was 85.

In the case of Nc1nc(C2CC2)nc(C(=O)OCC2CCCO2)c1Cl (centres unmarked) [Compound 150], the “Plant response rating, Barnyardgrass” value [14, 26] is reported as 80, the “Plant response rating, Barnyardgrass” value [14, 27] is reported as 95 and the “Plant response rating, Barnyardgrass” value [14, 28] is reported as 65. The “Plant response rating, Barnyardgrass” value [14, 29] was 80, the “Plant response rating, Crabgrass” value [15, 26] was 65 and the “Plant response rating, Crabgrass” value [15, 27] was 80. The “Plant response rating, Crabgrass” value [15, 28] was 50, the “Plant response rating, Crabgrass” value [15, 29] was 80 and the “Plant response rating, Foxtail, Giant” value [16, 26] was 80. The “Plant response rating, Foxtail, Giant” value [16, 27] was 85, the “Plant response rating, Foxtail, Giant” value [16, 28] was 50 and the “Plant response rating, Foxtail, Giant” value [16, 29] was 80. The “Plant response rating, Morningglory” value [17, 26] was 80, the “Plant response rating, Morningglory” value [17, 27] was 100 and the “Plant response rating, Morningglory” value [17, 28] was 90. For the same compound, the “Plant response rating, Morningglory” value [17, 29] was 100, the “Plant response rating, Pigweed” value [18, 26] was 90 and the “Plant response rating, Pigweed” value [18, 27] was 90. The “Plant response rating, Pigweed” value [18, 28] was 70, the “Plant response rating, Pigweed” value [18, 29] was 95 and the “Plant response rating, Velvetleaf” value [19, 26] was 90. For the same compound, the “Plant response rating, Velvetleaf” value [19, 27] was 100, the “Plant response rating, Velvetleaf” value [19, 28] was 75 and the “Plant response rating, Velvetleaf” value [19, 29] was 95.

Source: patent publication US8802597B2, “Herbicidal pyrimidines” (E I du Pont de Nemours and Company, priority 2003, dated 2014)
